Source: PubChem BioAssay AID248 (DTP/NCI, 2004)
Where “and” joins values, the source holds several entries; their conditions need not be identical. Equal entries are not always repeated. Inconclusive results and toxic doses are left out. Cut-off read from the data, not from the text of the source: active = T/C of 150% or more; inactive = T/C below 125%. Square brackets hold non-standard residues; d marks the D form. Peptide text beside a SMILES is read from it. * marks the point of attachment. ξ: configuration not given here. Cbz = O=C(OCc1ccccc1)*; ξP = O=C(O)C1CCCN1

Test system: L1210 leukemia ip in BDF1 mice, survival T/C
Assay: NCI In Vivo Anticancer Drug Screen. Data for tumor model L1210 Leukemia (intraperitoneal) in B6D2F1 (BDF1) mice
Conditions: endpoint: mean survival time, higher = longer survival
Summary of the method: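 Transplanted-tumor mice were given test agent; controls received vehicle only. Survival readings from the two groups were divided (treated over control).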

[1] = dose: 50.0 mg/kg/injection, schedule: Q01DX009 (ip), vehicle: saline
[2] = dose: 100.0 mg/kg/injection, schedule: Q01DX009 (ip), vehicle: saline
[3] = dose: 50.0 mg/kg/injection, schedule: Q01DX009 (ip), vehicle: saline with Tween-80
[4] = dose: 100.0 mg/kg/injection, schedule: Q01DX009 (ip), vehicle: saline with Tween-80
[5] = dose: 100.0 mg/kg/injection, schedule: Q04DX003 (ip), vehicle: saline with Tween-80
[6] = dose: 200.0 mg/kg/injection, schedule: Q04DX003 (ip), vehicle: saline with Tween-80
[7] = dose: 200.0 mg/kg/injection, schedule: Q01DX009 (ip), vehicle: saline with Tween-80
[8] = dose: 100.0 mg/kg/injection, schedule: Q01DX001 (ip), vehicle: saline
[9] = dose: 200.0 mg/kg/injection, schedule: Q01DX001 (ip), vehicle: saline
[10] = dose: 400.0 mg/kg/injection, schedule: Q01DX001 (ip), vehicle: saline
[11] = dose: 400.0 mg/kg/injection, schedule: Q04DX003 (ip), vehicle: saline with Tween-80
[12] = dose: 100.0 mg/kg/injection, schedule: Q01DX009 (ip), vehicle: water
[13] = dose: 200.0 mg/kg/injection, schedule: Q01DX009 (ip), vehicle: water
[14] = dose: 400.0 mg/kg/injection, schedule: Q01DX009 (ip), vehicle: water
[15] = dose: 50.0 mg/kg/injection, schedule: Q01DX001 (ip), vehicle: saline
[16] = dose: 25.0 mg/kg/injection, schedule: Q01DX009 (ip), vehicle: saline
[17] = dose: 100.0 mg/kg/injection, schedule: Q04DX003 (ip), vehicle: saline
[18] = dose: 200.0 mg/kg/injection, schedule: Q04DX003 (ip), vehicle: saline
[19] = dose: 100.0 mg/kg/injection, schedule: Q04DX003 (ip), vehicle: Klucel (hydroxypropylcellulose) (HPC)
[20] = dose: 200.0 mg/kg/injection, schedule: Q04DX003 (ip), vehicle: Klucel (hydroxypropylcellulose) (HPC)
[21] = dose: 400.0 mg/kg/injection, schedule: Q04DX003 (ip), vehicle: Klucel (hydroxypropylcellulose) (HPC)
[22] = dose: 400.0 mg/kg/injection, schedule: Q04DX003 (ip), vehicle: saline
[23] = dose: 100.0 mg/kg/injection, schedule: Q04DX002 (ip), vehicle: saline with Tween-80
[24] = dose: 200.0 mg/kg/injection, schedule: Q04DX002 (ip), vehicle: saline with Tween-80

Measured: T/C

Cc1cc(CCl)c(C)cc1CCl
inactive: dose: 25.0 mg/kg/injection, schedule: Q04DX003 (ip), vehicle: saline with Tween-80 96 % of control | dose: 50.0 mg/kg/injection, schedule: Q04DX003 (ip), vehicle: saline with Tween-80 90 % of control

IC[P+](c1ccccc1)(c1ccccc1)c1ccccc1
inactive: dose: 75.0 mg/kg/injection, schedule: Q01DX001 (ip), vehicle: carboxymethylcellulose (CMC) 106 % of control

Cc1ccc(S(=O)(=O)OCC2(COS(=O)(=O)c3ccc(C)cc3)CCC2(COS(=O)(=O)c2ccc(C)cc2)COS(=O)(=O)c2ccc(C)cc2)cc1
inactive: [1] 97 % of control | dose: 75.0 mg/kg/injection, schedule: Q01DX001 (ip), vehicle: saline 93 % of control | [2] 89 % of control | dose: 150.0 mg/kg/injection, schedule: Q01DX001 (ip), vehicle: saline 96 % of control | dose: 200.0 mg/kg/injection, schedule: Q01DX009 (ip), vehicle: saline 89 % of control | dose: 300.0 mg/kg/injection, schedule: Q01DX001 (ip), vehicle: saline 93 % of control

Cc1ncnc2c1CCC2
inactive: [3] 96 % of control | [4] 105 % of control | [5] 97 % of control | [6] 97 % of control

CC(=O)NCCCCC(=O)c1ccccc1
inactive: [4] 102 % of control | [7] 100 % of control

CC(CCc1ccc2sc3ccccc3c2c1)C(N)=O (stereo unspecified)
inactive: [8] 94 % of control | [9] 92 % of control | [10] 94 % of control

C=Cc1cnc(N)nc1-c1ccccc1
inactive: [5] 90 % of control | [6] 105 % of control | [11] 97 % of control

CCCCCCCCCCCC(=O)[O][Pb]([CH2]CCC)([CH2]CCC)[O]C(=O)CCCCCCCCCCC
inactive: dose: 6.25 mg/kg/injection, schedule: Q04DX002 (ip), vehicle: gum acacia 95 % of control | dose: 12.5 mg/kg/injection, schedule: Q04DX002 (ip), vehicle: gum acacia 92 % of control and 98 % of control | dose: 25.0 mg/kg/injection, schedule: Q04DX002 (ip), vehicle: gum acacia 88 % of control

O=C(C(=O)c1ccccc1)c1ccccc1
inactive: dose: 25.0 mg/kg/injection, schedule: Q01DX009 (ip), vehicle: water 102 % of control | dose: 50.0 mg/kg/injection, schedule: Q01DX009 (ip), vehicle: water 96 % of control | [12] 102 % of control | [5] 101 % of control | [13] 107 % of control | [6] 97 % of control | [14] 98 % of control | [11] 101 % of control

CC(C)C1CCC2(CC1)CCN(CCCN(C)C)CC2
inactive: [15] 93 % of control | [8] 113 % of control

COC(=O)c1c(C(=O)c2ccccc2)nn2c(-c3ccccc3)c(-c3ccccc3)c(-c3ccccc3)c(-c3ccccc3)c12
inactive: [9] 86 % of control | [10] 93 % of control

CCCCCCCCC(=O)N(C)CCO
inactive: [16] 104 % of control | [1] 96 % of control | [2] 100 % of control | [17] 109 % of control | [6] 95 % of control | [18] 98 % of control

Brc1cscc1C1=CCCc2ccccc21
inactive: [19] 106 % of control | [20] 98 % of control | [21] 101 % of control

COC(=O)C1CCCN1C(=O)CNC(=O)OCc1ccccc1 (stereo not drawn) (Cbz-Gly-[ξP]-OMe)
inactive: [17] 97 % of control | [18] 101 % of control | [22] 95 % of control

CN(C(=O)C1CCCCC1)C1CCCCC1O (stereo unspecified)
inactive: [3] 101 % of control | [4] 93 % of control | [7] 90 % of control

NC(CO)C(=O)O.[Cl-].[Cl-].[Cl-].[Cl-].[Pt+2] (stereo unspecified)
inactive: dose: 12.5 mg/kg/injection, schedule: Q01DX009 (ip), vehicle: saline 114 % of control and 117 % of control | [16] 122 % of control | [1] 119 % of control

CCCCCCCCCCCCCCCCCCNC(=O)C[N+](C)(C)Cc1ccccc1
inactive: dose: 3.13 mg/kg/injection, schedule: Q01DX009 (ip), vehicle: saline with Tween-80 93 % of control | dose: 6.25 mg/kg/injection, schedule: Q01DX009 (ip), vehicle: saline with Tween-80 98 % of control | dose: 12.5 mg/kg/injection, schedule: Q01DX009 (ip), vehicle: saline with Tween-80 89 % of control

CCOc1ccc(NC(=O)COc2ccc(Cl)cc2Cl)cc1
inactive: dose: 100.0 mg/kg/injection, schedule: Q04DX002 (ip), vehicle: Klucel (hydroxypropylcellulose) (HPC) 89 % of control | dose: 200.0 mg/kg/injection, schedule: Q04DX002 (ip), vehicle: Klucel (hydroxypropylcellulose) (HPC) 101 % of control | dose: 400.0 mg/kg/injection, schedule: Q04DX002 (ip), vehicle: Klucel (hydroxypropylcellulose) (HPC) 92 % of control

CCOC(=O)c1cnc(NN)nc1Nc1cc(Cl)cc(Cl)c1
inactive: [6] 90 % of control

Nc1ccc(Oc2ccc(Cl)cc2)c(Cl)c1
inactive: [4] 103 % of control | [19] 103 % of control | [7] 94 % of control | [20] 92 % of control | [21] 111 % of control

CCOC(=O)CNCc1ccc(C)cc1
inactive: [12] 102 % of control | dose: 100.0 mg/kg/injection, schedule: Q04DX003 (ip), vehicle: water 93 % of control | [13] 111 % of control | dose: 200.0 mg/kg/injection, schedule: Q04DX003 (ip), vehicle: water 93 % of control | [14] 105 % of control | dose: 400.0 mg/kg/injection, schedule: Q04DX003 (ip), vehicle: water 97 % of control

S=C(Cc1ccccc1)NC1CCCCC1
inactive: [19] 103 % of control | [20] 101 % of control | [21] 95 % of control

O=c1c(N=Nc2ccc(Cl)cc2)c(O)n(-c2ccccc2Cl)c(=S)n1-c1ccccc1
inactive: dose: 25.0 mg/kg/injection, schedule: Q01DX001 (ip), vehicle: Klucel (hydroxypropylcellulose) (HPC) 92 % of control | dose: 50.0 mg/kg/injection, schedule: Q01DX001 (ip), vehicle: Klucel (hydroxypropylcellulose) (HPC) 94 % of control | dose: 100.0 mg/kg/injection, schedule: Q01DX001 (ip), vehicle: Klucel (hydroxypropylcellulose) (HPC) 89 % of control

O=[N+]([O-])c1cc(-c2ccccc2)cc([N+](=O)[O-])c1Cl
inactive: dose: 50.0 mg/kg/injection, schedule: Q01DX009 (ip), vehicle: acetone 97 % of control | dose: 100.0 mg/kg/injection, schedule: Q01DX009 (ip), vehicle: acetone 100 % of control | [17] 96 % of control | dose: 200.0 mg/kg/injection, schedule: Q01DX009 (ip), vehicle: acetone 95 % of control | [18] 102 % of control | [22] 102 % of control

CCOC(=O)c1ccc(NC(=S)NC(=O)c2ccccc2)cc1
inactive: [23] 100 % of control | [24] 94 % of control

CCOC(=O)N1C(=O)NC(=O)C1c1ccc(OC)cc1 (stereo unspecified)
inactive: [15] 91 % of control | [8] 97 % of control | [9] 100 % of control | [10] 102 % of control

Cn1c2ccccc2c2nnc(SCCN3CCOCC3)nc21
inactive: [23] 97 % of control | [24] 93 % of control | dose: 400.0 mg/kg/injection, schedule: Q04DX002 (ip), vehicle: saline with Tween-80 101 % of control

O=C(C1C(c2ccccc2)N1Cc1ccccc1)C1C(c2ccccc2)N1Cc1ccccc1 (stereo unspecified)
inactive: dose: 75.0 mg/kg/injection, schedule: Q01DX001 (ip), vehicle: Klucel (hydroxypropylcellulose) (HPC) 101 % of control | dose: 150.0 mg/kg/injection, schedule: Q01DX001 (ip), vehicle: Klucel (hydroxypropylcellulose) (HPC) 88 % of control | dose: 300.0 mg/kg/injection, schedule: Q01DX001 (ip), vehicle: Klucel (hydroxypropylcellulose) (HPC) 93 % of control
